Test results: patent EP4563149A1, “LURBINECTEDIN, ECUBECTEDIN AND A RELATED COMPOUND FOR USE IN THE TREATMENT OF SKIN CANCERS” (Pharma Mar, S.A., priority 2023, dated 2025)
One block for each compound: values may come before it.

Experiments:
[1] = system: MM117; assay: Cell viability assay (PrestoBlue), 72h; conditions: Homo sapiens
Description: (§3) Cells were grown at 37°C in 5% CO2 (10% for Hermes 3A) and were regularly checked for mycoplasma contamination. […] Melanoma cell lines 501mel and SKmel28 were grown in RPMI w/o HEPES (Gibco, Invitrogen) supplemented with 10% FCS and gentamycin. Vemurafenib-resistant cells (501melVemuR and MM074VemuR) were additionally supplemented with 1.5 µM of vemurafenib. Melanoma IGR cell lines (IGR37 and IGR39) were grown in RPMI w/o HEPES (Gibco, Invitrogen) supplemented with 15% FCS and gentamycin.
(§4) To determine the IC50 (half maximal inhibitory concentration) of these cells to various inhibitors, cell viability assays were performed.
(§5) After 72h of treatment with different concentrations of the compounds, cells were treated with PrestoBlue reagent according to the manufacturer's instructions. The absorbance per well was measured with a Cellinsight CX5 microplate reader. Data were analyzed using Prism9 statistical software.

[2] = system: SKMEL-28; assay: Cell viability assay (PrestoBlue), 72h; conditions: Homo sapiens, SK-MEL-28, 72 h
Description: as §3, §4, §5

[3] = system: 501mel^VemuR; assay: Cell viability assay (PrestoBlue), 72h; conditions: Homo sapiens
Description: (§6) Cells were grown at 37°C in 5% CO2 (10% for Hermes 3A) and were regularly checked for mycoplasma contamination. MM patient-derived short-term melanoma cultures (MM011, MM074, MM117, MM029, MM047, MM099) were grown in HAM-F10 (Gibco, Invitrogen) supplemented with 10% Fetal Calf Serum (FCS), 25 mM HEPES, 5.2 mM GLUTAMAX and penicillin-streptomycin. Melanoma cell lines 501mel and SKmel28 were grown in RPMI w/o HEPES (Gibco, Invitrogen) supplemented with 10% FCS and gentamycin. Vemurafenib-resistant cells (501melVemuR and MM074VemuR) were additionally supplemented with 1.5 µM of vemurafenib. Melanoma IGR cell lines (IGR37 and IGR39) were grown in RPMI w/o HEPES (Gibco, Invitrogen) supplemented with 15% FCS and gentamycin.
as §4, §5

[4] = system: IGR37; assay: Cell viability assay (PrestoBlue), 72h, last line of Table 2; conditions: Homo sapiens, IGR-37, 72 h
Description: (§7) Cells were grown at 37°C in 5% CO2 (10% for Hermes 3A) and were regularly checked for mycoplasma contamination. […] Melanoma IGR cell lines (IGR37 and IGR39) were grown in RPMI w/o HEPES (Gibco, Invitrogen) supplemented with 15% FCS and gentamycin.
as §4, §5

[5] = system: MM074; assay: Cell viability assay (PrestoBlue), 72h; conditions: Homo sapiens
Description: as §3, §4, §5

[6] = system: Hermes3A; assay: Cell viability assay (PrestoBlue), 72h; conditions: for IC50: Homo sapiens, Melanocyte, 72 h
Description: as §7, §4, §5

[7] = system: MM074^VemuR; assay: Cell viability assay (PrestoBlue), 72h; conditions: Homo sapiens
Description: as §6, §4, §5

[8] = system: MM047; assay: Cell viability assay (PrestoBlue), 72h; conditions: Homo sapiens
Description: as §7, §4, §5

[9] = system: MM011; assay: Cell viability assay (PrestoBlue), 72h; conditions: Homo sapiens
Description: as §3, §4, §5

[10] = system: MM029; assay: Cell viability assay (PrestoBlue), 72h; conditions: Homo sapiens
Description: as §7, §4, §5

[11] = system: MM099; assay: Cell viability assay (PrestoBlue), 72h; conditions: Homo sapiens
Description: as §7, §4, §5

[12] = system: 501mel; assay: Cell viability assay (PrestoBlue), 72h; conditions: Homo sapiens
Description: as §3, §4, §5

[13] = system: IGR37; assay: Cell viability assay (PrestoBlue), 72h; conditions: Homo sapiens, IGR-37, 72 h
Description: as §3, §4, §5

[14] = system: MM074 melanospheres; assay: Melanosphere viability (CellTiterGlo); type: cell-based, human; conditions: 72h, doses equivalent to 5×IC50
Description: (§1) MM074 proliferative/differentiated cell line were seeded (5×10^4 cells) in ultra-low attachment hydrogel-layered 96 well plates in KO DMEM medium supplemented with 20% KSR, AANE, 2 mM Glutamax, Penicillin/Streptomycin and 100 uM Beta-mercaptoethanol. To allow for melanosphere formation, cells were left to grow for 4 days before drug treatment.
To analyze melanosphere viability after drug treatment, cells were treated with CellTiterGlo reagent (Promega) according to the manufacturer's instructions. Luminescence signals were measured with a Centro XS LB 960 microplate reader (Berthold).

[15] = system: MM074 melanospheres; assay: Melanosphere apoptosis (AnnexinV-APC / propidium iodide); type: cell-based, human; conditions: 72h
Description: as §1
For apoptosis assays with 3D-grown melanoma cells, TrypLe Select 10x reagent (Gibco) was used to dissociate melanospheres to obtain single-cell suspensions. These cells were incubated with AnnexinV-APC (Biolegend) and Propidium Iodide (PI, Biolegend). With bivariant dot plots, it was distinguished between viable (AnnexinV-/PI-), early apoptotic (AnnexinV+/PI-), late apoptotic (AnnexinV+/PI+) and necrotic cells (AnnexinV-/PI+).

[16] = system: melanoma cells; assay: Apoptosis by flow cytometry (AnnexinV-APC); type: cell-based, human; conditions: IC50 concentrations, Annexin V-APC
Description: (§2) After 48h of incubation, cells were rinsed and incubated with AnnexinV-APC (BD Biosciences). Cell proliferation and apoptosis were detected on a BD LSRFortessaTM Flow Cytometer. Data were analyzed with FlowJo software. To define slow proliferating or apoptotic cells: it was considered that slow proliferating cells represented the 30% of cells with the highest concentration of CellTrace Violet signal in the DMSO control. […] For apoptotic cells, it was considered the 20% of cells with the highest signal of AnnexinV-APC in the DMSO control.

[17] = system: melanoma cells 501mel; assay: Cell cycle analysis by flow cytometry (PI); type: cell-based, human; conditions: IC50 concentrations
Description: For cell cycle analysis, 2×10^6 cells were seeded in 6 well plates. […] After 2 washes with cold PBS, cells were incubated with RNAse A and PI for 1h in the dark, before being analyzed on a BD LSRFortessaTM Flow Cytometer. Data were analysed with FlowJo software.

[18] = system: RPB1 (RNA pol II elongation subunit); assay: Immunoblotting of RPB1 in 501mel; type: cell-based, human; conditions: 24h at 5×IC50
Description: Cells were washed once with cold PBS, rinsed with a cell scraper, pelleted and resuspended in LSDB 0.5M buffer (0.5M KCI, 50mM Tris HCl pH 7.9, 20% Glycerol, 1% NP40, 1mM DTT, PIC). Afterwards cells were fully disrupted with 3 cycles of heat shock in liquid nitrogen and 37°C water bath and centrifugated 15min at 14,000rpm to pellet cell debris. Ten micrograms of extract were loaded on SDS-PAGE before transfer to nitro-cellulose membranes and immunoblotting.

[19] = system: melanoma cells; assay: Cell proliferation by CellTrace Violet flow cytometry; type: cell-based, human; conditions: IC50 concentrations, compared to DMSO
Description: as §2

[20] = system: melanoma cell cultures or cell lines; assay: Clonogenic assay; type: cell-based, human; conditions: 48h at IC50 concentrations, then 10 days without drug
Description: Based on the cell viability assays conducted above, the efficacy of lurbinectedin, PM14 or Compound IA on melanoma cell proliferation was investigated. Initially, a clonogenic assay was performed. Cells were drug-treated at IC50 concentrations during 48h before seeding 1×10^3 or 2×10^3 cells in 6-well plates without drug, wherein they grew for 10 days to allow for colony formation. Afterwards, cells were fixed for 10min with 4% formaldehyde solution, washed once with PBS and stained with Crystal Violet solution 0.2% for 15 min. The wells were finally washed twice with deionized water, air dried, scanned and analyzed with Fiji software to count the number of colonies.

[21] = system: all melanoma cells; assay: Cell viability assay (PrestoBlue), summary over all melanoma cells; type: cell-based; conditions: Homo sapiens, read-out: IC50 values

IC50 [1]: 10.2 nM
IC50 [2]: 5.12 nM
Compound: CC(=O)Nc1cccc(-n2c(=O)n(C3CC3)c(=O)c3c(Nc4ccc(I)cc4F)n(C)c(=O)c(C)c32)c1 [trametinib]
IC50 [3]: > 50 nM
IC50 [4]: > 50 nM
IC50 [5]: 0.51 nM
IC50 [6]: > 50 nM
IC50 [7]: 4.65 nM
IC50 [8]: > 50 nM
IC50 [9]: > 50 nM
IC50 [10]: > 50 nM
IC50 [11]: > 50 nM
IC50 [12]: 3 nM
IC50 [13]: 0.53 nM

IC50 [1]: > 50 nM
IC50 [2]: 1 nM
Compound: CC(C)(C)c1nc(-c2cccc(NS(=O)(=O)c3c(F)cccc3F)c2F)c(-c2ccnc(N)n2)s1 [dabrafenib]
IC50 [3]: > 50 nM
IC50 [4]: > 50 nM
IC50 [5]: 4.68 nM
IC50 [6]: > 50 nM
IC50 [7]: > 50 nM
cell viability in 3D culture [14]: unable to reduce cell viability
IC50 [8]: > 50 nM
IC50 [9]: > 50 nM
IC50 [10]: > 50 nM
IC50 [11]: > 50 nM
IC50 [12]: > 50 nM
IC50 [13]: 25.3 nM

IC50 [1]: 488 nM
IC50 [2]: > 10000 nM
Compound: CCCS(=O)(=O)Nc1ccc(F)c(C(=O)c2c[nH]c3ncc(-c4ccc(Cl)cc4)cc23)c1F [vemurafenib]
IC50 [3]: > 10000 nM
IC50 [4]: > 10000 nM
IC50 [5]: 225 nM
IC50 [6]: > 10000 nM
IC50 [7]: > 10000 nM
IC50 [8]: > 10000 nM
IC50 [9]: > 10000 nM
IC50 [10]: > 10000 nM
IC50 [11]: > 10000 nM
IC50 [12]: 2440 nM
IC50 [13]: 517 nM

Compound: COc1ccc2[nH]c3c(c2c1)CCN[C@]31CS[C@@H]2c3c(OC(C)=O)c(C)c4c(c3[C@H](COC1=O)N1[C@@H]2[C@H]2c3c(cc(C)c(OC)c3O)C[C@@H]([C@@H]1O)N2C)OCO4 [lurbinectedin]
IC50 [1]: 0.3 nM
IC50 [2]: 1.17 nM
IC50 [3]: 1.07 nM
IC50 [4]: 0.41 nM
IC50 [5]: 1.06 nM
sensitivity of non-cancerous Hermes3A immortalized melanocytes compared with the melanoma cells ([6]; Hermes3A versus melanoma cells): less sensitive
IC50 [6]: 2.67 nM
IC50 [7]: 1.36 nM
cell viability in 3D culture [14]: significant cytotoxic effects
late apoptotic cells positive for Annexin V and propidium iodide [15]: substantial population of late apoptotic cells
apoptosis [16]: induction of apoptosis
IC50 [8]: 0.45 nM
IC50 [9]: 0.47 nM
cell cycle progression [17]: notable blockade
IC50 [10]: 1.28 nM
IC50 [11]: 0.73 nM
RPB1 (RNA pol II elongation subunit) degradation [18]: minimal
melanoma cell proliferation [19]: significant inhibition
IC50 [12]: 0.37 nM
colony formation (number of colonies) [20]: significant impact
IC50 [21]: 0.3 to 4.73 nM
IC50 [13]: 0.5 nM
